Like-named read-outs stand apart in the source and are kept apart here.
How the values were obtained:
Assay in all cases: biochemical
Design in all cases: Reaction Biology 371-kinase panel at Km ATP, per cent enzyme activity relative to DMSO, single dose in duplicate
AXL = AXL (Homo sapiens, UniProt P30530); details: duplicate measurements, Km ATP
Outline: (§1)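 Compound screened at 300 nM in vitro across a 371-kinase panel. Enzyme activity expressed as % of DMSO controls. IC50 values came from sigmoidal variable-slope dose-response fits with the bottom fixed at 0.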

CDK2/CYCLIN E = CDK2/CYCLIN E (Homo sapiens, UniProt P24941); details: duplicate measurements, Km ATP
Outline: as §1

CDK2/cyclin A1 = CDK2/cyclin A1 (Homo sapiens, UniProt P24941); details: duplicate measurements, Km ATP
Outline: as §1

CDK6/cyclin D3 = CDK6/cyclin D3 (Homo sapiens, UniProt Q00534); details: duplicate measurements, Km ATP
Chain of CDK6/cyclin D3 (Q00534 whole entry): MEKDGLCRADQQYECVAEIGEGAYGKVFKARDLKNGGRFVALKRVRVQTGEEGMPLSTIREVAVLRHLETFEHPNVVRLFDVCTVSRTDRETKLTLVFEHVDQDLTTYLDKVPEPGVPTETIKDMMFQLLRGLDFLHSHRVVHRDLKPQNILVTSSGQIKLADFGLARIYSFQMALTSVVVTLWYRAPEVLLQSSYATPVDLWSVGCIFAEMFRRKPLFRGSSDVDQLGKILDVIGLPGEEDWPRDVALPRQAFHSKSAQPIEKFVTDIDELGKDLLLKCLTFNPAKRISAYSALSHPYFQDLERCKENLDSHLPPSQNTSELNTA
Chain of CDK6/cyclin D3 (P30281 whole entry partner): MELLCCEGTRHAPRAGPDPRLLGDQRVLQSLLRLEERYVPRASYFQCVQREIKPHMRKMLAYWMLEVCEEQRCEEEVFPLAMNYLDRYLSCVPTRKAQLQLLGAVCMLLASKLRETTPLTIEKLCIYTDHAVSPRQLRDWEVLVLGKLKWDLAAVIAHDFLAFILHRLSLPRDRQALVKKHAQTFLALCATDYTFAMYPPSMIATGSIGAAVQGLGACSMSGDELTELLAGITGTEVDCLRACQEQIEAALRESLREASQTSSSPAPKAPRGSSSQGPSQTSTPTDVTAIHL
Outline: as §1

CK2a2 = biological target: T1, CK2a2 (Homo sapiens, UniProt P19784); details: duplicate measurements, Km ATP
T1 construct: gene CSNK2A2
T1 sequence (P19784 whole entry): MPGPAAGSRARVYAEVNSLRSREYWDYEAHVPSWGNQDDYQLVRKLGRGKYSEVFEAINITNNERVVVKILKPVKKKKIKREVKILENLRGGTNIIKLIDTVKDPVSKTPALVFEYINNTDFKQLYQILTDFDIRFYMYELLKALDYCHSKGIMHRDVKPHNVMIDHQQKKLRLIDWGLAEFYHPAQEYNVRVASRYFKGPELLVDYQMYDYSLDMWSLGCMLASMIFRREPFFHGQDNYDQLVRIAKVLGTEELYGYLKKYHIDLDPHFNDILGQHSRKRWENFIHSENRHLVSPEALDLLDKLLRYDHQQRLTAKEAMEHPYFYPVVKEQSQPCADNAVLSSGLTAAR
Outline: as §1

DMPK = DMPK (Homo sapiens, UniProt Q09013); details: duplicate measurements, Km ATP
Outline: as §1

DYRK1/DYRK1A = DYRK1/DYRK1A (Homo sapiens, UniProt Q13627); details: duplicate measurements, Km ATP
Outline: as §1

EPHA8 = EPHA8 (Homo sapiens, UniProt P29322); details: duplicate measurements, Km ATP
Outline: as §1

MARK3 = MARK3 (Homo sapiens, UniProt P27448); details: duplicate measurements, Km ATP
Outline: as §1

MNK2 = biological target: T2, MNK2 (Homo sapiens, UniProt Q9HBH9); details: duplicate measurements, Km ATP
T2 construct: gene MKNK2
Outline: as §1

MRCKa/CDC42BPA = MRCKa/CDC42BPA (Homo sapiens, UniProt Q5VT25); details: duplicate measurements, Km ATP
Chain of MRCKa/CDC42BPA (Q5VT25 whole entry): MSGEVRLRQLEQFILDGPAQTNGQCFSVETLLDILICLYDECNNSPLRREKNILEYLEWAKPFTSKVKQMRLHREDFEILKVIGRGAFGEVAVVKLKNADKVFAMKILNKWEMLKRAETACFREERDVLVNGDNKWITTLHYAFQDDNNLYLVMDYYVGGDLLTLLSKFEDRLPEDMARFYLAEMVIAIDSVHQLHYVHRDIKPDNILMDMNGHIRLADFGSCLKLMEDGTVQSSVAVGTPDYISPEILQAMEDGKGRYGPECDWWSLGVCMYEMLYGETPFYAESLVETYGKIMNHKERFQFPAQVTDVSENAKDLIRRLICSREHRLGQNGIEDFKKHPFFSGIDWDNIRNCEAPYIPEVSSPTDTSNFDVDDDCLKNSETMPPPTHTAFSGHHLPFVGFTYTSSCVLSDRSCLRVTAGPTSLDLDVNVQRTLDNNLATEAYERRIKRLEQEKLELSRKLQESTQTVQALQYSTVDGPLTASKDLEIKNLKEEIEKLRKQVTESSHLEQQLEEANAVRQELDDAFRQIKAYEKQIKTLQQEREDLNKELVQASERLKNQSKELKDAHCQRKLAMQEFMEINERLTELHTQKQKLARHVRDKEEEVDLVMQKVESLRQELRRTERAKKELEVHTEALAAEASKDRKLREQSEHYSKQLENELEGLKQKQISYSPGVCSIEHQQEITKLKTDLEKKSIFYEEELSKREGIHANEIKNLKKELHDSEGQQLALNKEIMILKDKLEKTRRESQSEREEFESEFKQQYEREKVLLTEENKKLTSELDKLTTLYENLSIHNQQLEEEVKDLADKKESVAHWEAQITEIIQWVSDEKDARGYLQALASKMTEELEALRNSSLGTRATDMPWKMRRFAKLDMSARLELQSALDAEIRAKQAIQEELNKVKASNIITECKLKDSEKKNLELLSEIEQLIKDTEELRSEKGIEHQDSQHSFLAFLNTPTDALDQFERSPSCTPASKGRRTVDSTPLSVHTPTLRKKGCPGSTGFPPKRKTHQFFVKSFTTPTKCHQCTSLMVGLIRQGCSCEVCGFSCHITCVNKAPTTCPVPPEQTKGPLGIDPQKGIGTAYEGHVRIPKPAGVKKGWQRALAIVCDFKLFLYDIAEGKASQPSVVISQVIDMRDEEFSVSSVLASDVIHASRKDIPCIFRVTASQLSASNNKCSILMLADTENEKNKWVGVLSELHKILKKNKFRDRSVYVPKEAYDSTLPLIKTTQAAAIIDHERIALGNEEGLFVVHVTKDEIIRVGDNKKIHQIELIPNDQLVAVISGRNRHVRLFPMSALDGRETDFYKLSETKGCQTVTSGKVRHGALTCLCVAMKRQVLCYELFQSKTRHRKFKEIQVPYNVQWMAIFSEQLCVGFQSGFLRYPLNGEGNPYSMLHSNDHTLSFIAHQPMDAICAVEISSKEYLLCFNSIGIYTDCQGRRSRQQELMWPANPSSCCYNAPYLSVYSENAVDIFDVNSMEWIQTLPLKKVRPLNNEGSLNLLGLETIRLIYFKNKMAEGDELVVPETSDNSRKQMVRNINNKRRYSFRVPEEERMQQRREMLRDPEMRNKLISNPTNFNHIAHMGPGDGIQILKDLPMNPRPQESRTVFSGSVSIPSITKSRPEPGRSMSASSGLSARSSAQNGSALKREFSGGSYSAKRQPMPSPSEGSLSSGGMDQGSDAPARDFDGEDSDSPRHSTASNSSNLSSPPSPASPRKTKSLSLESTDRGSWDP
Outline: as §1

NEK9 = NEK9 (Homo sapiens, UniProt Q8TD19); details: duplicate measurements, Km ATP
Chain of NEK9 (Q8TD19 whole entry): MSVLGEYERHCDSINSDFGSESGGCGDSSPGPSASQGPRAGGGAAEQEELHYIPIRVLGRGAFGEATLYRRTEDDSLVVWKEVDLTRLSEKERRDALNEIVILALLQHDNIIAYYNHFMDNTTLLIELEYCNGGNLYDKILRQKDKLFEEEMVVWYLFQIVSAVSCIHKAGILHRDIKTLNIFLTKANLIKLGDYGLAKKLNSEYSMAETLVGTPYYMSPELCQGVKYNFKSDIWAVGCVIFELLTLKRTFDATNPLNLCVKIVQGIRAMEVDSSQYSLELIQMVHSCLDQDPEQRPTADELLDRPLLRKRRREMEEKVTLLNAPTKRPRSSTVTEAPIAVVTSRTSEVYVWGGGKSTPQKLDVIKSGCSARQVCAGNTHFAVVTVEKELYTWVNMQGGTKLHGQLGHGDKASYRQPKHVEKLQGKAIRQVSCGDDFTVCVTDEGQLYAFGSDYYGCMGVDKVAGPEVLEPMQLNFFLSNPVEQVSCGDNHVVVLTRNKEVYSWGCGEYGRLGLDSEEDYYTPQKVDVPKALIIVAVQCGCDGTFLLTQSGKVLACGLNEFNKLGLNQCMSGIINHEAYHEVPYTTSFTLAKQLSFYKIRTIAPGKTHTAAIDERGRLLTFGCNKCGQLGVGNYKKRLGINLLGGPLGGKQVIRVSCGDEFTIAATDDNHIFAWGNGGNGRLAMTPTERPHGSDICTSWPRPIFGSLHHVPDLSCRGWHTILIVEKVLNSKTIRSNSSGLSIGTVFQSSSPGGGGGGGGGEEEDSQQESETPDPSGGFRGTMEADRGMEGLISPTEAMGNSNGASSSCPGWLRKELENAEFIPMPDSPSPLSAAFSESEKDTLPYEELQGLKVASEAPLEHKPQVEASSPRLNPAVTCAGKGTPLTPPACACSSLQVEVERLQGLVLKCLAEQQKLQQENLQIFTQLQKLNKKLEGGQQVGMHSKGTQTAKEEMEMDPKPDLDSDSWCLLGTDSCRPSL
Outline: as §1

PKCnu/PRKD3 = PKCnu/PRKD3 (Homo sapiens, UniProt O94806); details: duplicate measurements, Km ATP
Chain of PKCnu/PRKD3 (O94806 whole entry): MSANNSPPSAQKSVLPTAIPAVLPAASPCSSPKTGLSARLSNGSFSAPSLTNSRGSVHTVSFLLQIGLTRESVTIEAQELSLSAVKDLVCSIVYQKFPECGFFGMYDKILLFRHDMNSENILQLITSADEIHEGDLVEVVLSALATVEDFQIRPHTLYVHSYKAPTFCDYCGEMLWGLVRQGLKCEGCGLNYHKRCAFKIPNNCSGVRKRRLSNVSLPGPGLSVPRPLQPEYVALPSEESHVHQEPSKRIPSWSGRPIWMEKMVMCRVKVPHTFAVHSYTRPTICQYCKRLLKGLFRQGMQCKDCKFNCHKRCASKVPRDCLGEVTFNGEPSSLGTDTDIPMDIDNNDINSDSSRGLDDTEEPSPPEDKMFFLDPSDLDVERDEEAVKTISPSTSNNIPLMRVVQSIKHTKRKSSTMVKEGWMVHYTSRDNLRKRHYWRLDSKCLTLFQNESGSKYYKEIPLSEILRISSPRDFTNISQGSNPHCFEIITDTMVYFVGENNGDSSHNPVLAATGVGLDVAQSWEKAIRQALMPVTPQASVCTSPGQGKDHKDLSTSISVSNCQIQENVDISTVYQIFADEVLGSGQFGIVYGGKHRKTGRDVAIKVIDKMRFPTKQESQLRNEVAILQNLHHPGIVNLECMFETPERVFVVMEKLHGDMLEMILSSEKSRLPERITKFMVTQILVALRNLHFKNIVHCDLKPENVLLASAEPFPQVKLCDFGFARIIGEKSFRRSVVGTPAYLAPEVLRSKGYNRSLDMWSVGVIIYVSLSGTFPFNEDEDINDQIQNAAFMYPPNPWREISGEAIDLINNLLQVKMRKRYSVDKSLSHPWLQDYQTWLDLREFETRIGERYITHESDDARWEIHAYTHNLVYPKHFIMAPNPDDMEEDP
Outline: as §1

ROCK1 = ROCK1 (Homo sapiens, UniProt Q13464); details: duplicate measurements, Km ATP
Outline: as §1

RON/MST1R = RON/MST1R (Homo sapiens, UniProt Q04912); details: duplicate measurements, Km ATP
Outline: as §1

SIK3 = SIK3 (Homo sapiens, UniProt Q9Y2K2); details: duplicate measurements, Km ATP
Outline: as §1

TESK1 = TESK1 (Homo sapiens, UniProt Q15569); details: duplicate measurements, Km ATP; read-out: % Enzyme Activity (relative to DMSO controls) / TP-0005801 (0.3µM) / Data 1
Outline: as §1

TESK2 = TESK2 (Homo sapiens, UniProt Q96S53); details: duplicate measurements, Km ATP
Outline: as §1

ZIPK/DAPK3 = ZIPK/DAPK3 (Homo sapiens, UniProt O43293); details: duplicate measurements, Km ATP
Chain of ZIPK/DAPK3 (O43293 whole entry): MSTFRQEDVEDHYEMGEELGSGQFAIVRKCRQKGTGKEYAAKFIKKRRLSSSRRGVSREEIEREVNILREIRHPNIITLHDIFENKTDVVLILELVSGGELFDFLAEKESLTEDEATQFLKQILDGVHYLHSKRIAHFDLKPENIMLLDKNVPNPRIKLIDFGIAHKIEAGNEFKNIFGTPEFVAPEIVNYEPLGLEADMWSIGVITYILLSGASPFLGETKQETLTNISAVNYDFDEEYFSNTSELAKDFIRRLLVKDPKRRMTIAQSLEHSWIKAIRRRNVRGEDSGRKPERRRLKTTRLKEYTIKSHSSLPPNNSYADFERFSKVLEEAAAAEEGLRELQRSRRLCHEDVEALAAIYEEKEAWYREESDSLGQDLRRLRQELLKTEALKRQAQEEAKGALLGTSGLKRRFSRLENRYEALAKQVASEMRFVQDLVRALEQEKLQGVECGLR
Outline: as §1

c-Src = c-Src (Homo sapiens, UniProt P12931); details: duplicate measurements, Km ATP
Outline: as §1

[1] = read-out: % Enzyme Activity (relative to DMSO controls) / TP-0005801 (0.3µM) / Data 1
[2] = read-out: % Enzyme Activity (relative to DMSO controls) / TP-0005801 (0.3µM) / Data 2

## COc1cc(N2CCN(C)CC2)c(C)cc1Nc1ncc(Br)c(Nc2cccnc2N(C)C)n1 [TP-5801]
AXL; [1]
  remaining activity at 0.3 µM: 89.2%
AXL; [2]
  remaining activity at 0.3 µM: 86.3%
CDK2/CYCLIN E; [1]
  remaining activity at 0.3 µM: 91.7%
CDK2/CYCLIN E; [2]
  remaining activity at 0.3 µM: 91.2%
CDK2/cyclin A1; [1]
  remaining activity at 0.3 µM: 67.5%
CDK2/cyclin A1; [2]
  remaining activity at 0.3 µM: 63.7%
CDK6/cyclin D3; [1]
  remaining activity at 0.3 µM: 103%
CDK6/cyclin D3; [2]
  remaining activity at 0.3 µM: 101%
CK2a2; [1]
  remaining activity at 0.3 µM: 107%
CK2a2; [2]
  remaining activity at 0.3 µM: 89.1%
DMPK; [1]
  remaining activity at 0.3 µM: 102%
DMPK; [2]
  remaining activity at 0.3 µM: 101%
DYRK1/DYRK1A; [1]
  remaining activity at 0.3 µM: 86.5%
DYRK1/DYRK1A; [2]
  remaining activity at 0.3 µM: 85.9%
EPHA8; [1]
  remaining activity at 0.3 µM: 95.1%
EPHA8; [2]
  remaining activity at 0.3 µM: 93.8%
MARK3; [1]
  remaining activity at 0.3 µM: 95.4%
MARK3; [2]
  remaining activity at 0.3 µM: 91.7%
MNK2; [1]
  remaining activity at 0.3 µM: 89.8%
MNK2; [2]
  remaining activity at 0.3 µM: 89%
MRCKa/CDC42BPA; [1]
  remaining activity at 0.3 µM: 104%
MRCKa/CDC42BPA; [2]
  remaining activity at 0.3 µM: 100%
NEK9; [1]
  remaining activity at 0.3 µM: 69.6%
NEK9; [2]
  remaining activity at 0.3 µM: 68.6%
PKCnu/PRKD3; [1]
  remaining activity at 0.3 µM: 55.8%
PKCnu/PRKD3; [2]
  remaining activity at 0.3 µM: 55.5%
ROCK1; [1]
  remaining activity at 0.3 µM: 99.8%
ROCK1; [2]
  remaining activity at 0.3 µM: 96.7%
RON/MST1R; [1]
  remaining activity at 0.3 µM: 94%
RON/MST1R; [2]
  remaining activity at 0.3 µM: 92.4%
SIK3; [1]
  remaining activity at 0.3 µM: 96.1%
SIK3; [2]
  remaining activity at 0.3 µM: 93.9%
TESK1
  remaining activity at 0.3 µM: 102%
TESK2; [1]
  remaining activity at 0.3 µM: 92.8%
TESK2; [2]
  remaining activity at 0.3 µM: 90.1%
ZIPK/DAPK3; [1]
  remaining activity at 0.3 µM: 81%
ZIPK/DAPK3; [2]
  remaining activity at 0.3 µM: 79.4%
c-Src; [1]
  remaining activity at 0.3 µM: 107%
c-Src; [2]
  remaining activity at 0.3 µM: 106%

Reference: PMC8429728, “TNK1 is a ubiquitin-binding and 14-3-3-regulated kinase that can be targeted to block tumor growth” (Nature Communications, 2021)
